Test results from the NIST ThermoML archive (doi:10.1021/acs.jced.7b00694).

Experiment: xn = mol fraction of the nth substance listed
Conditions: Gas, Buoyancy - hydrostatic balance with magnetic suspension - one sinker

[HH] [hydrogen] + N#N
Conditions | mass density [kg/m3]
274.99 K, 14000 kPa, x2 = 0.95 | 162.308
274.99 K, 14998 kPa, x2 = 0.5001 | 91.878
274.99 K, 15002 kPa, x2 = 0.95 | 173.076
274.99 K, 16011 kPa, x2 = 0.95 | 183.72
274.99 K, 17006 kPa, x2 = 0.95 | 194.006
275 K, 13999 kPa, x2 = 0.9 | 153.123
275 K, 15005 kPa, x2 = 0.9 | 163.298
275 K, 15997 kPa, x2 = 0.5001 | 97.397
275 K, 16004 kPa, x2 = 0.9 | 173.22
275 K, 17000 kPa, x2 = 0.5001 | 102.851
275 K, 17005 kPa, x2 = 0.9 | 182.969
275 K, 17996 kPa, x2 = 0.5001 | 108.187
275 K, 18001 kPa, x2 = 0.95 | 204.074
275 K, 18013 kPa, x2 = 0.9 | 192.591
275 K, 19000 kPa, x2 = 0.5001 | 113.476
275 K, 19012 kPa, x2 = 0.9 | 201.918
275 K, 19017 kPa, x2 = 0.95 | 214.131
275 K, 19574 kPa, x2 = 0.5001 | 116.461
275 K, 19891 kPa, x2 = 0.9 | 209.964
275 K, 20152 kPa, x2 = 0.95 | 225.084
299.93 K, 997 kPa, x2 = 0.95 | 10.683
299.93 K, 998 kPa, x2 = 0.9 | 10.171
299.93 K, 1999 kPa, x2 = 0.9 | 20.375
299.93 K, 2984 kPa, x2 = 0.9 | 30.399
299.93 K, 3997 kPa, x2 = 0.9 | 40.678
299.93 K, 4997 kPa, x2 = 0.9 | 50.784
299.93 K, 5997 kPa, x2 = 0.9 | 60.838
299.93 K, 6998 kPa, x2 = 0.9 | 70.842
299.93 K, 7998 kPa, x2 = 0.9 | 80.755
299.93 K, 8998 kPa, x2 = 0.9 | 90.589
299.93 K, 9998 kPa, x2 = 0.9 | 100.316
299.93 K, 10998 kPa, x2 = 0.9 | 109.939
299.93 K, 11999 kPa, x2 = 0.9 | 119.448
299.93 K, 12999 kPa, x2 = 0.9 | 128.823
299.93 K, 14000 kPa, x2 = 0.9 | 138.079
299.93 K, 14998 kPa, x2 = 0.9 | 147.162
299.93 K, 16001 kPa, x2 = 0.9 | 156.149
299.93 K, 17004 kPa, x2 = 0.9 | 164.981
299.93 K, 18004 kPa, x2 = 0.9 | 173.629
299.93 K, 19002 kPa, x2 = 0.9 | 182.11
299.93 K, 19557 kPa, x2 = 0.9 | 186.761
299.94 K, 998 kPa, x2 = 0.5001 | 5.984
299.94 K, 1998 kPa, x2 = 0.5001 | 11.937
299.94 K, 1998 kPa, x2 = 0.95 | 21.43
299.94 K, 2984 kPa, x2 = 0.95 | 32.013
299.94 K, 2999 kPa, x2 = 0.5001 | 17.846
299.94 K, 3997 kPa, x2 = 0.95 | 42.862
299.94 K, 3998 kPa, x2 = 0.5001 | 23.691
299.94 K, 4997 kPa, x2 = 0.95 | 53.549
299.94 K, 4998 kPa, x2 = 0.5001 | 29.485
299.94 K, 5998 kPa, x2 = 0.5001 | 35.223
299.94 K, 5998 kPa, x2 = 0.95 | 64.189
299.94 K, 6997 kPa, x2 = 0.5001 | 40.897
299.94 K, 6999 kPa, x2 = 0.95 | 74.769
299.94 K, 7997 kPa, x2 = 0.5001 | 46.51
299.94 K, 7999 kPa, x2 = 0.95 | 85.271
299.94 K, 8996 kPa, x2 = 0.5001 | 52.057
299.94 K, 9000 kPa, x2 = 0.95 | 95.695
299.94 K, 9998 kPa, x2 = 0.5001 | 57.555
299.94 K, 10000 kPa, x2 = 0.95 | 106.004
299.94 K, 10997 kPa, x2 = 0.5001 | 62.968
299.94 K, 10999 kPa, x2 = 0.95 | 116.189
299.94 K, 11998 kPa, x2 = 0.5001 | 68.317
299.94 K, 12000 kPa, x2 = 0.95 | 126.269
299.94 K, 12994 kPa, x2 = 0.5001 | 73.577
299.94 K, 13002 kPa, x2 = 0.95 | 136.232
299.94 K, 13996 kPa, x2 = 0.5001 | 78.8
299.94 K, 14000 kPa, x2 = 0.95 | 146.008
299.94 K, 14998 kPa, x2 = 0.5001 | 83.948
299.94 K, 14999 kPa, x2 = 0.95 | 155.65
299.94 K, 15992 kPa, x2 = 0.5001 | 88.984
299.94 K, 16000 kPa, x2 = 0.95 | 165.148
299.94 K, 16992 kPa, x2 = 0.5001 | 93.982
299.94 K, 17005 kPa, x2 = 0.95 | 174.51
299.94 K, 17997 kPa, x2 = 0.5001 | 98.934
299.94 K, 18000 kPa, x2 = 0.95 | 183.626
299.94 K, 18998 kPa, x2 = 0.5001 | 103.792
299.94 K, 19003 kPa, x2 = 0.95 | 192.638
299.94 K, 19854 kPa, x2 = 0.5001 | 107.886
299.94 K, 19889 kPa, x2 = 0.95 | 200.449
324.94 K, 12002 kPa, x2 = 0.95 | 115.15
324.94 K, 14997 kPa, x2 = 0.95 | 141.813
324.94 K, 15998 kPa, x2 = 0.95 | 150.466
324.94 K, 16993 kPa, x2 = 0.95 | 158.937
324.94 K, 17986 kPa, x2 = 0.95 | 167.256
324.94 K, 19001 kPa, x2 = 0.95 | 175.603
324.94 K, 19731 kPa, x2 = 0.9 | 171.908
324.94 K, 19880 kPa, x2 = 0.95 | 182.728
324.95 K, 998 kPa, x2 = 0.5001 | 5.527
324.95 K, 998 kPa, x2 = 0.9 | 9.371
324.95 K, 998 kPa, x2 = 0.95 | 9.855
324.95 K, 1998 kPa, x2 = 0.5001 | 11.018
324.95 K, 1998 kPa, x2 = 0.95 | 19.717
324.95 K, 1999 kPa, x2 = 0.9 | 18.75
324.95 K, 2983 kPa, x2 = 0.9 | 27.94
324.95 K, 2984 kPa, x2 = 0.95 | 29.414
324.95 K, 2996 kPa, x2 = 0.5001 | 16.446
324.95 K, 3997 kPa, x2 = 0.95 | 39.338
324.95 K, 3999 kPa, x2 = 0.5001 | 21.856
324.95 K, 3999 kPa, x2 = 0.9 | 37.374
